Results published in patent publication US20210223237A1, “COMPOSITIONS AND METHODS FOR STUDYING DRUG METABOLISM” (Boehringer Ingelheim International GmbH, priority 2020, published 2021).
Where two headings read alike, the source gives them in different places.

Experiments:
[1] = human, microsomes, 6 h, 1 μM
in vitro [2] = settings: human, microsomes
[3] = cited from earlier work
[4] = HLM 0.005 mg/ml
in vitro [5] = settings: human, pH 7.4
in vitro [6] = settings: human, microsomes; remark: listed apart in the source
[7] = in vivo; cited from earlier work
[8] = Microsomal binding (fu,mic) using HLM-beads; settings: HLM-beads; HLM 1.0 mg/ml; compound 1.0 μM; (SD)
[9] = Non-specific binding of compounds to magnetizable beads alone; settings: 30 min incubation of beads (5.3×10^9 beads), bioanalysis of supernatant
CYP3A = test: CYP3A-mediated midazolam 1′hydroxylation kinetics in HLM suspensions vs HLM-beads; design: Km, times higher with HLM-beads than with HLM suspensions: unit not given beside the values; settings: for microsomal CLint / Km: human; for microsomal CLint: pH 7.4; for Km: pH 7.4, probe midazolam (1′-hydroxylation)

SMILES	fu,mic [1]	fraction unbound at 6 h, 1 μM (in vitro [2])	pKa [3]	depletion of parent midazolam ([4]; HLM suspensions, no new HLM added, up to 160 min)	metabolism of midazolam on exchange of used HLM-beads with fresh HLM-beads ([4]; HLM-bead relay every 20 minutes)	CLhep predicted at 1 μM (in vitro [5]) [mL/min/kg]	microsomal CLint at 1 μM (in vitro [5]) [µL/min/mg]	fraction unbound at 5 min, 1 μM (in vitro [6])	blood clearance reported in the literature [7] [mL/min/kg]	fu,mic [8]	non-specific binding to the beads [9]	Vmax (CYP3A; HLM suspensions) [pmol/min/mg]	Vmax (CYP3A; HLM-beads)	Km, times higher with HLM-beads than with HLM suspensions (CYP3A; HLM-beads vs HLM suspensions) [×]	microsomal CLint (CYP3A; human liver microsomes (suspension)) [µL/min/mg]	Km (CYP3A; human liver microsomes bound to beads (HLM-beads)) [µM]	Km (CYP3A; human liver microsomes in suspension (no beads)) [µM]	microsomal CLint (CYP3A) [µL/min/mg]
CC(=O)CC(c1ccccc1)c1c(O)c2ccccc2oc1=O (stereo not shown) [Warfarin, warfarin]	0.86 (0.08)	0.94	5.0															
Cc1ncc2n1-c1ccc(Cl)cc1C(c1ccccc1F)=NC2 [Midazolam, midazolam]		0.98		No perceptible depletion	continued metabolism	9.47	842	0.76	8.59	0.53 (0.02)	not observed	2002 ± 66	4350 ± 249^sig pmol/min/mg	~3	2830	2.04 ± 0.23	0.612 ± 0.086	2130
